Where “and” joins values, the source holds several entries; their conditions need not be identical. Identical values can stand only once.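 All cell lines were grown in 96-well plates and treated with compound for 48 hours. Abbreviation: GI50, concentration required for 50% inhibition of growth.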 Calls of active or inactive are those of the source. Rule as the data show it: active = GI50 up to about 1.1 µM and inactive = higher. *1 amine or outer side, *2 acyl side, *3 side chain or, on linkers, in order; H or OH if unused. Where a SMILES comes first, the peptide text is derived from it. Bridges are numbered along the chain shown (N, C = ends). Roman numbers before positions name the chains, in order. [ ]: non-standard residue; d: D form. Actinocin(9to1) = Cc1c2oc3c(C)ccc(C(=O)[*:1])c3nc-2c(C(=O)[*:2])c(N)c1=O; NMeV = CN[CH](C(=O)O)C(C)C; Sar = CNCC(=O)O

Common to all, as to assay: NCI-60 cell line screen, 48 h
Test [1] concerns DU-145.
Test [2] concerns MCF7.
In test [3] the test system is XF498.
Test [4] concerns DLD-1.
Test [5] deals with SNB-78.
Test [6] relates to LXFL 529.
For test [7], the system named is DMS-273.
Test [8] deals with KM-20L2.

As for `O=C(CCC(NC(=O)OCc1ccccc1)C(=O)OCc1ccccc1)Nc1cccc(OCc2ccccc2)c1` (stereo not drawn), the GI50 in test [1] was 28.4 µM (inactive); in test [2] it was 20.7 µM (inactive).

`CC1OC1C(=O)P(=O)(O)O` (stereo not drawn): the GI50 in test [1] and in test [2] was > 100 µM (inactive) throughout.

As to `CC1=C2c3ccccc3N(C(=O)/C=C/C(=O)O)[C@H]2[C@H]2C(=O)OC(=O)[C@H]2C1`, the GI50 in test [1] and in test [2] was > 10 µM (inactive) in each case.

On to `CCCCCCCCCCCCNC(=S)OC`, for which the GI50 in test [3] was 16.6 µM (inactive); in test [4], 15 µM (inactive); in test [5], 21.5 µM (inactive); in test [6], 14.8 µM (inactive); in test [7], 15.4 µM (inactive); in test [8], 16.3 µM (inactive).

On to `O=C1OC(c2ccccc2)=N/C1=C\c1ccccc1`, for which the GI50 is > 100 µM (inactive) and 59 µM (inactive) in test [1]; 48.4 µM (inactive) and 96.6 µM (inactive) in test [2].

`CC1(CO)OC(n2cnc3c(N)ncnc32)C(O)C1O` (stereo not drawn): the GI50 in test [4] was > 100 µM (inactive); in test [6], > 100 µM (inactive); in test [7], > 10 µM (inactive).

For `CN(C)CC(CO)(CN(C)C)CN(C)C`, the GI50 in test [1] and in test [2] was > 100 µM (inactive) in each case.

Take `CCN(CC)CCn1nc2c3c(c(NCCN)ccc31)Sc1cc(O)ccc1-2`: the GI50 in test [3] is 0.128 µM (active); in test [4] it was 1.25 µM (inactive); in test [5] it was 0.877 µM (active); in test [6], 0.178 µM (active); in test [7], 0.417 µM (active).

As for `N=C(N)NCC(N)C(=O)O` (stereo not drawn), the GI50 in test [1] and in test [2] was > 100 µM (inactive) each time.

Take `Nc1ccc2cc(S(=O)(=O)O)cc(O)c2c1/N=N/c1ccc(NC(=O)Nc2ccc(/N=N/c3c(N)ccc4cc(S(=O)(=O)O)cc(O)c34)c(S(=O)(=O)O)c2)cc1S(=O)(=O)O`: the GI50 was > 100 µM (inactive) in test [3]; > 100 µM (inactive) in test [4]; 97.7 µM (inactive) in test [5]; > 100 µM (inactive) in test [7]; > 100 µM (inactive) in test [2].

As to `Nn1c(S)nnc1COc1cccc(OCc2nnc(S)n2N)c1`, the GI50 in test [1] was > 100 µM (inactive); in test [2], 75 µM (inactive).

Take `COC(=O)C1CCC(=O)C(Sc2ccccc2)C1` (stereo not drawn): the GI50 in test [3], in test [4], in test [5], in test [6], in test [7] and in test [8] was > 100 µM (inactive) throughout.

For the compound `CC(C)CNc1nc2ncnc(N)c2[nH]1`, the GI50 in test [1] and in test [2] was > 100 µM (inactive) each time.

For the compound `CC12C3C4C1C1C2C3C41CO` (stereo not drawn), the GI50 in test [1] and in test [2] was > 100 µM (inactive) each time.

For the compound `Cc1ccccc1NC(=O)CSc1nnc(Cc2ccccc2)o1`, the GI50 in test [4], in test [5], in test [6], in test [7] and in test [8] was > 100 µM (inactive) throughout.

For `O=C1c2ccccc2C2(c3ccc(Cl)cc3)N[C@H]3CCCC[C@@H]3N12` (stereo partly drawn), the GI50 in test [1] is > 100 µM (inactive).

Consider `FC(F)(F)c1ccc2c(c1)nc1n2C(c2c(Cl)cccc2Cl)SC1` (stereo not drawn), for which the figures for the GI50 in test [1] and in test [2] were 21.4 µM (inactive) and 15.7 µM (inactive), respectively.

`O=c1[nH]cnc2c(COCCCO)c[nH]c12`: the GI50 in test [4], in test [5], in test [6] and in test [8] was > 100 µM (inactive) throughout.

Consider `COc1ccc2c(Cc3c4ccccc4cc4ccccc34)cncc2c1O`, for which the results for the GI50 in test [1] and in test [2] were 2.77 µM (inactive) and 0.638 µM (active), respectively.

Consider `COc1c(CC(C)O)c2c3c(CC(C)O)c(OC)c(=O)c4c(O)cc5c(c6c(cc(O)c(c1=O)c62)OCO5)c43` (stereo not drawn) [CERCOSPORIN], for which the GI50 is 1.96 µM (inactive) in test [4]; 2.15 µM (inactive) in test [5]; 1.56 µM (inactive) in test [6]; 0.906 µM (active) in test [7]; 0.301 µM (active) in test [8].

Turning to `O=C(O)C(=C\c1ccc2c(c1)OCO2)/C(=C/c1ccc2c(c1)OCO2)C(=O)O`, the GI50 in test [1] and in test [2] was > 100 µM (inactive) each time.

Regarding `Cn1c(=O)c2[nH]c(/N=N/N3CCN(CCO)CC3)nc2n(C)c1=O`, the GI50 in test [1] and in test [2] was > 100 µM (inactive) in each case.

`N/C(=N\O)N/N=C/c1cc2c(cc1Cl)OCO2`: the GI50 was 42.8 µM (inactive) in test [4]; > 68.2 µM (inactive) in test [5]; 18.6 µM (inactive) in test [7]; 35.8 µM (inactive) in test [8]; 22.3 µM (inactive) in test [2].

For the compound `Oc1cccc(-c2nc3ccccc3s2)c1`, the values for the GI50 in test [1] and in test [2] were 38.7 µM (inactive) and 16.4 µM (inactive), respectively.

Take `c1ccc(/N=C(\N2CCCCC2)N(CCN2CCCCC2)c2ccccc2)cc1`: the GI50 in test [1] is 2.1 µM (inactive).

Turning to `COc1ccc(CC2COc3cc(O)cc(O)c3C2=O)cc1O` (stereo not drawn), the figures for the GI50 in test [1] and in test [2] were 9.48 µM (inactive) and 6.21 µM (inactive), respectively.

Take `Cc1c2oc3c(C)ccc(C(=O)NC4C(=O)NC(C(C)O)C(=O)N5CCCC5C(=O)N(C)CC(=O)N(C)C(C(C)C)C(=O)OC4C)c3nc-2c(C(=O)NC2C(=O)NC(C(C)O)C(=O)N3CCCC3C(=O)N(C)CC(=O)N(C)C(C(C)C)C(=O)OC2C)c(N)c1=O` (stereo not drawn) (I: TTP[Sar][NMeV] / II: TTP[Sar][NMeV]; ester I:1-I:C, II:1-II:C; linker I:N-II:N via Actinocin(9to1); configuration not given here): the figures for the GI50 in test [1] and in test [2] were 1.32 µM (inactive) and 0.0507 µM (active), respectively.

Regarding `COc1ccc2c(c1)[n+]([O-])c(C(C)=O)c(C)[n+]2[O-]`, the GI50 in test [3], in test [4], in test [5] and in test [6] was > 100 µM (inactive) each time.

For `FC(F)(F)c1ccc(/N=N/N2CCCC2)cc1`, the GI50 in test [1] and in test [2] was > 100 µM (inactive) throughout.

Regarding `CC1(CO)COS(=O)OC1` (stereo not drawn), the GI50 in test [1] and in test [2] was > 100 µM (inactive) throughout.

As for `NN=C(S)Nc1cccc(Cl)c1`, the GI50 in test [1] and in test [2] was > 100 µM (inactive) each time.

Consider `O=C1c2ccccc2C(=O)c2[nH]c(=O)c(/C=N/Nc3ccc([N+](=O)[O-])cc3)nc21`, for which the GI50 was 1.81 µM (inactive) in test [1] and 9.38 µM (inactive) in test [2].

Turning to `CN(c1ccc(C(=O)c2ccc(N(C)S(C)(=O)=O)cc2)cc1)S(C)(=O)=O`, the GI50 in test [4] was > 100 µM (inactive); in test [5] it was > 100 µM (inactive); in test [6] it was 42.4 µM (inactive); in test [8], > 100 µM (inactive).

For `CC(C)N(C(=O)C1(O)c2ccccc2C=Cc2ccccc21)C(C)C`, the results for the GI50 in test [1] and in test [2] were 17.9 µM (inactive) and 17.3 µM (inactive), respectively.

On to `O=C(CCCN1CCC(C(O)c2ccc(F)cc2)CC1)c1ccc(F)cc1` (stereo not drawn), for which the GI50 in test [1] is 61.9 µM (inactive); in test [3], 4.46 µM (inactive); in test [4], 51.8 µM (inactive); in test [5], 56.9 µM (inactive); in test [7] it was 63.5 µM (inactive); in test [8], 41.7 µM (inactive). Besides, the GI50 in test [2] is 64.9 µM (inactive).

As for `COc1ccc2nc3cc(Cl)ccc3c(NCCCCCC(=O)NC(COc3ccc4ccc5cccnc5c4n3)COc3ccc4ccc5cccnc5c4n3)c2c1`, the GI50 is 11.5 µM (inactive) in test [1] and 2.23 µM (inactive) in test [2].

As to `O=Cc1cc(O)ccc1Br`, the results for the GI50 in test [1] and in test [2] were 44.7 µM (inactive) and 4.41 µM (inactive), respectively.

As to `C[N+](C)(C)c1ncnc2c1ncn2C1CC(O)C(CO)O1` (stereo not drawn), the GI50 in test [1] and in test [2] was > 100 µM (inactive) throughout.

As to `COc1nc2c(N3CCCC3)nc(N3CCNCC3)nc2nc1NCc1ccccc1`, the GI50 in test [1] is 1.75 µM (inactive); in test [2], 1.76 µM (inactive).

Regarding `COc1ccc(Nc2nc(N)c(C(=O)c3c[nH]c4ccccc34)s2)cc1`, the GI50 in test [1] was 2.2 µM (inactive); in test [2] it was 1.03 µM (active).

Take `CCCCCCC1NN(C(C)=O)C(CCCCCC)NN1C(C)=O` (stereo not drawn): the GI50 is 52.1 µM (inactive) in test [4], > 100 µM (inactive) in test [6], > 100 µM (inactive) in test [7] and > 100 µM (inactive) in test [8].

On to `CC1=NC(=O)CNN1C1=NNC2(C(=O)N1)c1ccccc1-c1ccccc12`, for which the GI50 in test [1] and in test [2] was > 100 µM (inactive) in each case.

On to `CC1(C)OC2OC(COC(=O)C(c3ccccc3)c3ccccc3)C3OC(C)(C)OC3C2O1` (stereo not drawn), for which the GI50 in test [3] is 14.7 µM (inactive); in test [4], 7.98 µM (inactive); in test [6], > 10 µM (inactive); in test [7] it was 9.02 µM (inactive); in test [8], 50.2 µM (inactive).

For the compound `Cc1c2cc[n+](C)cc2c(C)c2c1[nH]c1ccccc12`, the GI50 in test [1] is 0.52 µM (active); in test [3] it was 0.608 µM (active); in test [4], 1.65 µM (inactive); in test [7] it was 1.64 µM (inactive); in test [2], 2.44 µM (inactive).

For `N#CCCN(CCN(CCC#N)C(=O)Nc1ccccc1)C(=O)Nc1ccccc1`, the values for the GI50 in test [1] and in test [2] were 76.9 µM (inactive) and > 100 µM (inactive), respectively.

For the compound `COc1ccc2c(c1)-c1oc3ccccc3c(=O)c1CO2`, the GI50 in test [1] was 40.1 µM (inactive); in test [2], 36.9 µM (inactive).

Turning to `CC1(C)[C@H](C(=O)O)N2C(=O)[C@@H](NS(=O)(=O)c3ccc([N+](=O)[O-])cc3)[C@H]2S1(=O)=O`, the GI50 in test [1] and in test [2] was > 100 µM (inactive) throughout.

Regarding `Cc1ccc(O)c(C(c2ccc([N+](=O)[O-])cc2)c2cc(C)ccc2O)c1`, the GI50 in test [1] was 12.1 µM (inactive); in test [2], 4.98 µM (inactive).

As to `Cc1c2c(cc3c1[nH]c1ccccc13)C(c1ccc(Cl)cc1)=NCC2`, the GI50 in test [3] was 0.0973 µM (active); in test [4], 0.452 µM (active); in test [5] it was 0.682 µM (active); in test [7], 0.237 µM (active); in test [8], 0.301 µM (active); in test [2] it was 0.236 µM (active).

(Values after ChEMBL document CHEMBL1201862, “PubChem BioAssay data set” (2004).)
